{
  "source": "paper PMC9738727",
  "about": "“Purification and Characterization of Novel Anti-MRSA Peptides Produced by Brevibacillus sp. SPR-20” (Molecules, 2022)",
  "test_system": "S. aureus TISTR 517",
  "assay": "Proteolytic enzyme stability, remaining activity by agar well diffusion",
  "assay_type": "in vitro ADME, Staphylococcus aureus",
  "conditions": "proteinase K, trypsin, α-chymotrypsin, both test strains",
  "description": "The antimicrobial activity was measured by an agar well diffusion test with some modified methods. In brief, single colonies of the tested strains were suspended in 0.85% NaCl, and then the OD at 625 nm was adjusted to 0.1. The cell suspensions were spread on MH agar, and the tested samples (100 μL) were introduced into each well before incubation at 37 °C for 24 h. Each experiment was performed in three independent replicates, and the inhibition zone was measured and expressed as mean ± SD.\nThe stability of the anti-MRSA peptide against several conditions was studied. […] The sensitivity of the peptide sample to proteolytic enzymes was investigated by incubating the sample with proteinase K, trypsin, and α-chymotrypsin (1 mg/mL) for 1 h. Surfactant compatibility of the substance was examined by incubating the sample with 1% SDS and 1% Triton X-100 for 1 h (AppliChem GmbH, Darmstadt, Germany). The acid and base hydrolysis property of the substance was assessed by pH adjustment to 2–14 for 1 h before the samples were neutralized to pH 7. […] The stability profiles were presented as the percentage of activity relative to the untreated condition (mean ± SD), and significant difference was determined by the Student’s t-test at a p-value < 0.05.",
  "note": "Ends that are not written are not given here.",
  "data": [
    {"sequence": "VVVNVLVKVLPPPVV [Peptide P1]", "values": [
      {"measurement": "activity when incubated with proteolytic enzymes", "value": "more than 90%"}
    ]}
  ]
}
